target: CSNK1G2 (human) (UniProt P78368); experiment: radiometric filter-binding kinase assay, Kinase HotSpot; details: compound 0.5 µM; ATP 10 µM

Row | SMILES | residual activity [%]
1 | O=c1c(-c2ccc(F)cc2)c(-c2ccncc2)[nH]n1-c1ccc(Cl)cc1 | 93.8

target: RPS6KA3 KD1 KD2 (human) (UniProt P51812); experiment: as above; details: compound 0.5 µM; ATP 10 µM
Sequence (P51812 whole entry, looked up): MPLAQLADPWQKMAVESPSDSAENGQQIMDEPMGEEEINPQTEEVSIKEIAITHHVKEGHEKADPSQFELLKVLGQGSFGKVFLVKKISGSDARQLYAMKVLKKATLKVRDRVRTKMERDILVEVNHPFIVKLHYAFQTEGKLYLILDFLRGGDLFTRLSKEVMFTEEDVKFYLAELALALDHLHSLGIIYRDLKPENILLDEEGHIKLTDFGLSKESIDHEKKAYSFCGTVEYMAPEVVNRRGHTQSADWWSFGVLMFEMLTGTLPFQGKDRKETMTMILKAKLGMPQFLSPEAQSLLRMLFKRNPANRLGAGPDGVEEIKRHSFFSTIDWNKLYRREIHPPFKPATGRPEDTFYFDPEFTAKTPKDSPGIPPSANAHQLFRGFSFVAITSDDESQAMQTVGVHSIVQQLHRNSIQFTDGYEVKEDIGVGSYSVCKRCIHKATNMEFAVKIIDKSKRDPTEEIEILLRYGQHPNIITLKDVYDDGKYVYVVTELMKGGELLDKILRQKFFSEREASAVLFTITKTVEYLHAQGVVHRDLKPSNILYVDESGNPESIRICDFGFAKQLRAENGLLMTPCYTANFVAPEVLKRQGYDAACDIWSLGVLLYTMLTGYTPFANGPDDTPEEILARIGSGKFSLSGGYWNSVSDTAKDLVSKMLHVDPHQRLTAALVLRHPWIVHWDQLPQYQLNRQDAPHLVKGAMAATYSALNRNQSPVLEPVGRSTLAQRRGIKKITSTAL

Row | SMILES | residual activity [%]
2 | N#Cc1c(NC(=O)c2cccc3ccccc23)sc2c1CCCC2 | 99
3 | CN[C@@H]1C[C@H]2O[C@@](C)([C@@H]1OC)n1c3ccccc3c3c4c(c5c6ccccc6n2c5c31)C(=O)NC4 | -1.27
4 | COc1cc2c(N3CCN(C(=O)Nc4ccc(OC(C)C)cc4)CC3)ncnc2cc1OCCCN1CCCCC1 | 96.6
5 | O=c1[nH]c2ccccc2n1C1CCN(Cc2ccc(-c3nc4cc5[nH]cnc5cc4nc3-c3ccccc3)cc2)CC1 | 96.6
6 | O=c1c(-c2ccc(F)cc2)c(-c2ccncc2)[nH]n1-c1ccc(Cl)cc1 | 94.3

target: CLK4 (human) (UniProt Q9HAZ1); experiment: as above; details: compound 0.5 µM; ATP 10 µM
Sequence (Q9HAZ1 whole entry, looked up): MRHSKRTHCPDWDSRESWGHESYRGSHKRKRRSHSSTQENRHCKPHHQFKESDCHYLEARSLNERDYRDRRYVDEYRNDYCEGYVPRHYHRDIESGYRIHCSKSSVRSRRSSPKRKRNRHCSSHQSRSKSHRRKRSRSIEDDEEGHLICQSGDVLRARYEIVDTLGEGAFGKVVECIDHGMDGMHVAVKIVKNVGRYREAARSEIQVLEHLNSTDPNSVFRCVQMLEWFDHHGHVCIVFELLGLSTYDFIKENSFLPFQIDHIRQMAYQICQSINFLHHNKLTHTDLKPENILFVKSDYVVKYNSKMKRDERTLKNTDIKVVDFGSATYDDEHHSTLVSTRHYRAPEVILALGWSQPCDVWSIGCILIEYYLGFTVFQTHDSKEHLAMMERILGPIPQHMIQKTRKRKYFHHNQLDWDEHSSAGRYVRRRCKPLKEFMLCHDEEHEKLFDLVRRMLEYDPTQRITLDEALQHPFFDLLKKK

Row | SMILES | residual activity [%]
7 | N#Cc1c(NC(=O)c2cccc3ccccc23)sc2c1CCCC2 | 92
8 | CN[C@@H]1C[C@H]2O[C@@](C)([C@@H]1OC)n1c3ccccc3c3c4c(c5c6ccccc6n2c5c31)C(=O)NC4 | 6.62
9 | COc1cc2c(N3CCN(C(=O)Nc4ccc(OC(C)C)cc4)CC3)ncnc2cc1OCCCN1CCCCC1 | 88.7
10 | O=c1[nH]c2ccccc2n1C1CCN(Cc2ccc(-c3nc4cc5[nH]cnc5cc4nc3-c3ccccc3)cc2)CC1 | 92.8
11 | O=c1c(-c2ccc(F)cc2)c(-c2ccncc2)[nH]n1-c1ccc(Cl)cc1 | 78.9

target: PAK2 (human) (UniProt Q13177); experiment: as above; details: compound 0.5 µM; ATP 10 µM
Sequence (Q13177 whole entry, looked up): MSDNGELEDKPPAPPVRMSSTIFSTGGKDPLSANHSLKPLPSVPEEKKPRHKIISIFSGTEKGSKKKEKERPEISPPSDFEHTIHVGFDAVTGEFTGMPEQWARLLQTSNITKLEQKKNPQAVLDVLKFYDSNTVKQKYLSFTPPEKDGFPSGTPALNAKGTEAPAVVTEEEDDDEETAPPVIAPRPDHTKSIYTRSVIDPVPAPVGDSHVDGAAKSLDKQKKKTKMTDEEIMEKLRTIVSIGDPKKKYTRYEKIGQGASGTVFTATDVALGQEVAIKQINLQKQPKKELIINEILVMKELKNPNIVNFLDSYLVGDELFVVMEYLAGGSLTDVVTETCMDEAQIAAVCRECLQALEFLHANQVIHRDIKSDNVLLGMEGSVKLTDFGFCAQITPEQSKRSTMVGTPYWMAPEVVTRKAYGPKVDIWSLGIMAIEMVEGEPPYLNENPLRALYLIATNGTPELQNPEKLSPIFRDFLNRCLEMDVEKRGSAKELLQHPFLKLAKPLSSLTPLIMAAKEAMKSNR

Row | SMILES | residual activity [%]
12 | N#Cc1c(NC(=O)c2cccc3ccccc23)sc2c1CCCC2 | 103
13 | COc1cc2c(N3CCN(C(=O)Nc4ccc(OC(C)C)cc4)CC3)ncnc2cc1OCCCN1CCCCC1 | 112
14 | O=c1[nH]c2ccccc2n1C1CCN(Cc2ccc(-c3nc4cc5[nH]cnc5cc4nc3-c3ccccc3)cc2)CC1 | 99.2
15 | O=c1c(-c2ccc(F)cc2)c(-c2ccncc2)[nH]n1-c1ccc(Cl)cc1 | 102

target: NTRK3 (human) (UniProt Q16288); experiment: as above; details: compound 0.5 µM; ATP 10 µM

Row | SMILES | residual activity [%]
16 | O=c1[nH]c2ccccc2n1C1CCN(Cc2ccc(-c3nc4cc5[nH]cnc5cc4nc3-c3ccccc3)cc2)CC1 | 116
17 | O=c1c(-c2ccc(F)cc2)c(-c2ccncc2)[nH]n1-c1ccc(Cl)cc1 | 99.2

target: ERBB2 (human) (UniProt P04626); experiment: as above; details: compound 0.5 µM; ATP 10 µM
Sequence (P04626 whole entry, looked up): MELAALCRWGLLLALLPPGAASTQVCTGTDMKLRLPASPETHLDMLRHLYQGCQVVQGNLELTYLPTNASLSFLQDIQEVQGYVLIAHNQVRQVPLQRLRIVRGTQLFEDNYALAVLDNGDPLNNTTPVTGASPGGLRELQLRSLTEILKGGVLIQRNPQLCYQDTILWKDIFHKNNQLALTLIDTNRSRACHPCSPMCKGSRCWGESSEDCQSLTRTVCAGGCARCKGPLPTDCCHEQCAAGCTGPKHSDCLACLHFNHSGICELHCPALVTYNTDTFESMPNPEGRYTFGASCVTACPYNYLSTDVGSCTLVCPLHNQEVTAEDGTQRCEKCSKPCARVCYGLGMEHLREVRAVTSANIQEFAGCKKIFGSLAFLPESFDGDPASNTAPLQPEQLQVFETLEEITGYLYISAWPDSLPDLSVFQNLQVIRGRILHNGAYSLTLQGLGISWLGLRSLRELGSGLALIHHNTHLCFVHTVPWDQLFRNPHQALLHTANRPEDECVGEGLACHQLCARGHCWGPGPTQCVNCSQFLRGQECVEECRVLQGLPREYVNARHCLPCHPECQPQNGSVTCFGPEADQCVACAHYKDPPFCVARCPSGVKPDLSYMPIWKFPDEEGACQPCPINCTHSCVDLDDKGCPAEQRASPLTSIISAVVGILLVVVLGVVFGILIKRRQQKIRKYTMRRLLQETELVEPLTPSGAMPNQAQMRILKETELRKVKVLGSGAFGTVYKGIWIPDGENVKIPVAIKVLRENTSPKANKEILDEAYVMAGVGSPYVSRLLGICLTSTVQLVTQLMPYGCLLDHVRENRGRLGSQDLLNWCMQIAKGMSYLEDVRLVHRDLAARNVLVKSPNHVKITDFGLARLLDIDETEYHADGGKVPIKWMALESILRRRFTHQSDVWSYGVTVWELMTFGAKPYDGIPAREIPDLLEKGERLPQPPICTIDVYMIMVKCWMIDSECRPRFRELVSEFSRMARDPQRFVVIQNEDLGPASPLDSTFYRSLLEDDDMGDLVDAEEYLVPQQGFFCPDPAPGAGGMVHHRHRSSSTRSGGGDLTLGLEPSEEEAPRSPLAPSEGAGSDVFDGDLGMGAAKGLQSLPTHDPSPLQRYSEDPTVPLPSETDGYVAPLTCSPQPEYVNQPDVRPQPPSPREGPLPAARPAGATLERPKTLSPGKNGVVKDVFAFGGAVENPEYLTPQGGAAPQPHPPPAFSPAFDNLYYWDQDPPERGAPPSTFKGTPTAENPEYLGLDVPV

Row | SMILES | residual activity [%]
18 | N#Cc1c(NC(=O)c2cccc3ccccc23)sc2c1CCCC2 | 97.6
19 | COc1cc2c(N3CCN(C(=O)Nc4ccc(OC(C)C)cc4)CC3)ncnc2cc1OCCCN1CCCCC1 | 104
20 | O=c1[nH]c2ccccc2n1C1CCN(Cc2ccc(-c3nc4cc5[nH]cnc5cc4nc3-c3ccccc3)cc2)CC1 | 88.9
21 | O=c1c(-c2ccc(F)cc2)c(-c2ccncc2)[nH]n1-c1ccc(Cl)cc1 | 103

target: EPHA3 (human) (UniProt P29320); experiment: as above; details: compound 0.5 µM; ATP 10 µM

Row | SMILES | residual activity [%]
22 | N#Cc1c(NC(=O)c2cccc3ccccc23)sc2c1CCCC2 | 103
23 | COc1cc2c(N3CCN(C(=O)Nc4ccc(OC(C)C)cc4)CC3)ncnc2cc1OCCCN1CCCCC1 | 94.7
24 | O=c1[nH]c2ccccc2n1C1CCN(Cc2ccc(-c3nc4cc5[nH]cnc5cc4nc3-c3ccccc3)cc2)CC1 | 71.9
25 | O=c1c(-c2ccc(F)cc2)c(-c2ccncc2)[nH]n1-c1ccc(Cl)cc1 | 84.4

target: TSSK1B (human) (UniProt Q9BXA7); experiment: as above; details: compound 0.5 µM; ATP 10 µM
Sequence (Q9BXA7 whole entry, looked up): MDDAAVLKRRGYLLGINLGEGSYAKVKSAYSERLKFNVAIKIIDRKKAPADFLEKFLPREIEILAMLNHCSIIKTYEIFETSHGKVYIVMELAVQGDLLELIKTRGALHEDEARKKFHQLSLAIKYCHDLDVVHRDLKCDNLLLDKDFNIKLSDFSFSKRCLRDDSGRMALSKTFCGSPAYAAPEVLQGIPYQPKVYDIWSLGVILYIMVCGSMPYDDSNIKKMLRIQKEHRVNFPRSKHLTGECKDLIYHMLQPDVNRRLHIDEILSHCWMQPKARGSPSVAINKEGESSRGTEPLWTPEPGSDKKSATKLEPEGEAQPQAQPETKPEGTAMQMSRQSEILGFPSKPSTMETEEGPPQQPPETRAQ

Row | SMILES | residual activity [%]
26 | N#Cc1c(NC(=O)c2cccc3ccccc23)sc2c1CCCC2 | 94.9
27 | COc1cc2c(N3CCN(C(=O)Nc4ccc(OC(C)C)cc4)CC3)ncnc2cc1OCCCN1CCCCC1 | 96.8
28 | O=c1[nH]c2ccccc2n1C1CCN(Cc2ccc(-c3nc4cc5[nH]cnc5cc4nc3-c3ccccc3)cc2)CC1 | 96.5
29 | O=c1c(-c2ccc(F)cc2)c(-c2ccncc2)[nH]n1-c1ccc(Cl)cc1 | 76.2

target: RET (human) (UniProt P07949); experiment: as above; details: compound 0.5 µM; ATP 10 µM
Sequence (P07949 whole entry, looked up): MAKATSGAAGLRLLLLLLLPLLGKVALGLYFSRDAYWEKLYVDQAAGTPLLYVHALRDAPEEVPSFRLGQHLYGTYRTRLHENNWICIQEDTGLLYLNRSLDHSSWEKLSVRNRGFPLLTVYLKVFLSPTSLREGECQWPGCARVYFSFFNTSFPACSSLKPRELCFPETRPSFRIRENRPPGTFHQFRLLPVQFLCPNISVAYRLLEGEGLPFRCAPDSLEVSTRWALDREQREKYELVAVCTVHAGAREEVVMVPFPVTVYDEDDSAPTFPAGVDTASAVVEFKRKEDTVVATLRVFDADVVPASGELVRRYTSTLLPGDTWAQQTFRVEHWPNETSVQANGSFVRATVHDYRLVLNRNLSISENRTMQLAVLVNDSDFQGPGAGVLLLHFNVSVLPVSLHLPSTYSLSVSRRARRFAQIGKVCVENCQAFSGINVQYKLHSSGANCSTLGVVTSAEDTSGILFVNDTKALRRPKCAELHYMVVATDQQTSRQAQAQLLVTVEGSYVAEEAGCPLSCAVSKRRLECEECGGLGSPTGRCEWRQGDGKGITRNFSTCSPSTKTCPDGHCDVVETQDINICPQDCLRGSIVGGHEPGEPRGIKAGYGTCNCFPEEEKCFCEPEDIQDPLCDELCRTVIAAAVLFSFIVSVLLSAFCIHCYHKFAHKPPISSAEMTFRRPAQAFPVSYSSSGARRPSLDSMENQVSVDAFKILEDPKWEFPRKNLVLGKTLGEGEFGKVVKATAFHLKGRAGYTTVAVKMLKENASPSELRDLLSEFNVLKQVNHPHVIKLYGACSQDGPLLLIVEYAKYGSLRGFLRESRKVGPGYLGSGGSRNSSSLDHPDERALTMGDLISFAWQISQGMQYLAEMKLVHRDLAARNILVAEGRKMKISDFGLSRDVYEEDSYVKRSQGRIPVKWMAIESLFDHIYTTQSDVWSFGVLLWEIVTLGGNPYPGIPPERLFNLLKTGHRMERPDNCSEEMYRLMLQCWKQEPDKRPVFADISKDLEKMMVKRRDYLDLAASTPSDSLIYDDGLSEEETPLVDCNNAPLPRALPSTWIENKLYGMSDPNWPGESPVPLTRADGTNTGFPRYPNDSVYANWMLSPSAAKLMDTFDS

Row | SMILES | residual activity [%]
30 | N#Cc1c(NC(=O)c2cccc3ccccc23)sc2c1CCCC2 | 105
31 | COc1cc2c(N3CCN(C(=O)Nc4ccc(OC(C)C)cc4)CC3)ncnc2cc1OCCCN1CCCCC1 | 91.5
32 | O=c1[nH]c2ccccc2n1C1CCN(Cc2ccc(-c3nc4cc5[nH]cnc5cc4nc3-c3ccccc3)cc2)CC1 | 96.7
33 | O=c1c(-c2ccc(F)cc2)c(-c2ccncc2)[nH]n1-c1ccc(Cl)cc1 | 99.6

target: PDGFRA (human) (UniProt P16234); experiment: as above; details: compound 0.5 µM; ATP 10 µM

Row | SMILES | residual activity [%]
34 | N#Cc1c(NC(=O)c2cccc3ccccc23)sc2c1CCCC2 | 101
35 | COc1cc2c(N3CCN(C(=O)Nc4ccc(OC(C)C)cc4)CC3)ncnc2cc1OCCCN1CCCCC1 | 11.1
36 | O=c1[nH]c2ccccc2n1C1CCN(Cc2ccc(-c3nc4cc5[nH]cnc5cc4nc3-c3ccccc3)cc2)CC1 | 98.2
37 | O=c1c(-c2ccc(F)cc2)c(-c2ccncc2)[nH]n1-c1ccc(Cl)cc1 | 103

target: AKT2 (human) (UniProt P31751); experiment: as above; details: compound 0.5 µM; ATP 10 µM
Sequence (P31751 whole entry, looked up): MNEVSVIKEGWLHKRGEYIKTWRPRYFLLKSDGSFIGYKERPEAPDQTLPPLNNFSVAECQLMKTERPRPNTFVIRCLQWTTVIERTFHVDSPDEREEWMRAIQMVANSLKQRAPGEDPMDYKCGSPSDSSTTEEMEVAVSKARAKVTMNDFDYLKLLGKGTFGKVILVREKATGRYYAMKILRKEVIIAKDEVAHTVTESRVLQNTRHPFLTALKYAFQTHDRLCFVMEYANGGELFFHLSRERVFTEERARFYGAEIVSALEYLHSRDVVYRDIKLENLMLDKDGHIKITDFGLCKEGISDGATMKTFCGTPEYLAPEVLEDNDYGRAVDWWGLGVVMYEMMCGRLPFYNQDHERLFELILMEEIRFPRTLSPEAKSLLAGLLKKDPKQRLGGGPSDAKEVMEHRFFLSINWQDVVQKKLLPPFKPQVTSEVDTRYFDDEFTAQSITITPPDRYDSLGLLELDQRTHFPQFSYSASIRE

Row | SMILES | residual activity [%]
38 | N#Cc1c(NC(=O)c2cccc3ccccc23)sc2c1CCCC2 | 105
39 | COc1cc2c(N3CCN(C(=O)Nc4ccc(OC(C)C)cc4)CC3)ncnc2cc1OCCCN1CCCCC1 | 97.9
40 | O=c1[nH]c2ccccc2n1C1CCN(Cc2ccc(-c3nc4cc5[nH]cnc5cc4nc3-c3ccccc3)cc2)CC1 | 96.8
41 | O=c1c(-c2ccc(F)cc2)c(-c2ccncc2)[nH]n1-c1ccc(Cl)cc1 | 97.8

target: PRKCB2 (human) (UniProt P05771); experiment: as above; details: compound 0.5 µM; ATP 10 µM

Row | SMILES | residual activity [%]
42 | N#Cc1c(NC(=O)c2cccc3ccccc23)sc2c1CCCC2 | 104

Reference: the kinase profiling compilation of Christmann-Franck et al. (2016)
